Data on six compounds can be found in patent US6630462B2, “Delta agonist analgesics” (Adolor Corporation, priority 2000, dated 2003).

The structures appear in SMILES notation. Like-named read-outs stand apart in the source and are kept apart here.

Series [1] has as its target cloned human κ opioid receptor (Homo sapiens, UniProt P41145). The series is described as follows: Opioid receptor binding assay, [3H]diprenorphine, CHO cell membranes. As to conditions: for inhibition at 10 µM: [3H]diprenorphine binding. The protocol: (§1) Chinese hamster ovary (CHO) cells are stably transfected with the cloned human μ, κ, or δ opioid receptors. Cells are harvested by scraping them from the culture flask, centrifuging them at 1000×g for 10 min, resuspending them in buffer A and centrifuging again to remove growth medium. The cells are resuspended again in buffer A and homogenized for 30 seconds using a Polytron homogenizer (Brinkmann) at setting 8. The homogenate is centrifuged at 48,000×g for 10 min at 4° C. The pellets are resuspended at 1 mg of protein per mL of buffer A and aliquots stored at −80° C. until use. Buffer A is 50 mM Tris HCl, pH 7.8, containing 1.0 mM EGTA, 5 mM MgC12, 10 mg/mL leupeptin, 10 mg/mL pepstatin A, 200 mg/mL bacitracin, and 0.5 mg/mL aprotinin.
(§2) Receptor binding assays contain 0.4-1.0 nM [3H]diprenorphine (˜40,000 dpm), test compound as appropriate, and membrane preparation in a total volume of 0.5 mL buffer A. After incubation at room temperature for one hour, the samples are filtered through Whatman GF/B filters that have been presoaked in a solution of 0.5% (w/v) polyethylenimine and 0.1% (w/v) bovine serum albumin in water. The filters are rinsed 4×1 mL with cold 50 mM Tris HCl, pH 7.8 and radioactivity remaining on the filters is determined by scintillation spectroscopy. Ki values are determined by Cheng-Prusoff corrections of IC50 values derived from nonlinear regression fits of 12 point titration curves using the program Prism© (GraphPad Software, San Diego, Calif.).

Series [2] addresses cloned human μ opioid receptor (Homo sapiens, UniProt P35372). The series is described as above. The following applies: for inhibition at 10 µM: read-out: % Inhibition @ 10 μM, μ. The protocol: as §1, §2
The subject of series [3] is seizures in mice. Kind of series: Drug-induced seizures. It counts as in vivo. As to conditions: for induction of seizures: s.c., doses up to 30 mg/kg, observed 30 min. The protocol:
Mice are injected s.c. with either vehicle (1:1:8, DMSO: Cremophor: Saline), clozapine (3-30 mg/kg), or DMCLZ (3-30 mg/kg). Immediately after injection, the mice are placed in individual plastic cages (30×16×12 cm) lined with bedding. The mice are observed for gross behavioral signs for 30 min, and the presence or absence of seizures is noted.
To determine the role of δ opioid receptors in mediating clozapine-induced seizures, mice are pretreated with either saline or the selective δ antagonist naltrindole (NTI) (1 mg/kg, s.c.) 20 min prior to treatment with vehicle or 30 mg/kg of clozapine.

The target of series [4] is cloned human δ opioid receptor (Homo sapiens, UniProt P41143). Kind of series: Opioid receptor binding assay, [3H]diprenorphine, CHO cell membranes. As to conditions: for Ki: cloned human δ receptor in CHO membranes, read-out: Ki, inhibition of [3H]diprenorphine binding, δ. The protocol:
as §1
The filters are rinsed 4×1 mL with cold 50 mM Tris HCl, pH 7.8 and radioactivity remaining on the filters is determined by scintillation spectroscopy. Ki values are determined by Cheng-Prusoff corrections of IC50 values derived from nonlinear regression fits of 12 point titration curves using the program Prism© (GraphPad Software, San Diego, Calif.).

Series [5] deals with formalin-induced flinching, late phase. Kind of series: Formalin-induced flinching. It counts as in vivo, Sprague-Dawley rats. The following applies: rat, 300 μg i.paw, late phase 20-35 min after formalin. The protocol: Male Sprague-Dawley rats weighing 80-120 g are injected s.c. with […] of a 5% formalin solution into the dorsal surface of the right hind paw (i.paw). The flinching behavior is quantified by counting the number of responses that occur during the tonic (late) phase of pain, lasting from 20-35 min after formalin injection. The test compounds are injected i.paw 10 min prior to the formalin injection. The mean percent antagonism (%A) of formalin-induced flinching for drug treated, formalin injected rats is calculated according to the following formula: %A=(Mean formalin response−Mean saline response)−Individual response×100/Mean formalin response−Mean saline response The mean formalin response is the mean number of flinches in rats treated with vehicle prior to the formalin injection. The mean saline response is the mean number of flinches in rats treated with […] saline instead of formalin.

Series [6] addresses human δ opioid receptor (Homo sapiens, UniProt P41143). Kind of series: Opioid receptor-mediated stimulation of [35S]GTPγS binding. It is filed as biochemical. The protocol:
Chinese hamster ovary (CHO) cells are stably transfected with the cloned human μ, κ, or δ opioid receptors. Cells are harvested by scraping them from the culture flask, centrifuging them at 1000×g for 10 min, resuspending them in buffer A and centrifuging again to remove growth medium. The cells are resuspended again in buffer A and homogenized for 30 seconds using a Polytron homogenizer (Brinkmann) at setting 8. The homogenate is centrifuged at 48,000×g for 10 min at 4° C. The pellets are resuspended at 1 mg of protein per mL of buffer A and aliquots stored at −80° C. until use. […]
Assays contain 80-100 pM [35S]GTPγS, […], 75 mM NaCl, 15 mM MgCl2, 1.0 mM EGTA, 2.1 mM dithiothreitol, 10 mg/mL leupeptin, 10 mg/mL pepstatin A, 200 mg/mL bacitracin, 0.5 mg/mL aprotinin, […] of membrane protein and agonist as appropriate in a final total volume of […] of 50 mM Tris HCl, pH 7.8 in 96 well Basic Flashplates® (NEN). After incubation for one hour at room temperature, the samples are centrifuged at 800×g at 4° C. for 5 min and the radioactivity (cpm) bound to the membranes is determined by scintillation spectrometry.
To determine the IC50 value, which is the concentration to give half-maximal inhibition of agonist-stimulated [35S]GTPγS binding, the cpm of [35S]GTPγS bound in the presence of a fixed concentration of agonist and various concentrations of antagonist is measured. […]

The conditions of series [7]: human patients; cited from earlier work.
For series [8], the system named is acetic acid-induced writhing. The series is described as follows: Acetic acid-induced writhing. It counts as in vivo, ICR mice. The following applies: sc; mouse, s.c., 15 min before acetic acid. The protocol:
Male ICR mice weighing 20-25 g are injected s.c. with either vehicle or test compound 15 min before they are injected intraperitoneally with 0.6% acetic acid. At 5 min after treatment with acetic acid, the number of writhes is counted for 10 min. Dose response curves are expressed as the percent inhibition of acetic acid induced writhing, when compared to the mean number of writhes observed in vehicle-treated mice.
The mean percent inhibition (%I) of acetic acid-induced writhing for drug-treated rats is calculated according to the following formula: [formula]
The mean individual response is the mean number of writhes in rats treated with test compound. The mean vehicle response is the mean number of writhes in rats treated with vehicle.

Setting [9] is: 10 μM, [3H]diprenorphine binding.

cloned human μ opioid receptor, sequence (P35372 whole entry): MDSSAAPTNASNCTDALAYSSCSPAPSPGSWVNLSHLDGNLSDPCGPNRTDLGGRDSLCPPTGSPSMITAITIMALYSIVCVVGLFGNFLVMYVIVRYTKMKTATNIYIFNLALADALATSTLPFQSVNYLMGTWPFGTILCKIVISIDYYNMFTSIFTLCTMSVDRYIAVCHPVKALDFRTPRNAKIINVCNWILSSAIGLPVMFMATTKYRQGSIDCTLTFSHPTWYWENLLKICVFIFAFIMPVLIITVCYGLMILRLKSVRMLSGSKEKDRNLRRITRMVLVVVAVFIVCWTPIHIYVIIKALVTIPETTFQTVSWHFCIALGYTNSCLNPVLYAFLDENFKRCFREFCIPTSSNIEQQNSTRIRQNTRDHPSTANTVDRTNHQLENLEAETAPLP
cloned human κ opioid receptor, sequence (P41145 whole entry): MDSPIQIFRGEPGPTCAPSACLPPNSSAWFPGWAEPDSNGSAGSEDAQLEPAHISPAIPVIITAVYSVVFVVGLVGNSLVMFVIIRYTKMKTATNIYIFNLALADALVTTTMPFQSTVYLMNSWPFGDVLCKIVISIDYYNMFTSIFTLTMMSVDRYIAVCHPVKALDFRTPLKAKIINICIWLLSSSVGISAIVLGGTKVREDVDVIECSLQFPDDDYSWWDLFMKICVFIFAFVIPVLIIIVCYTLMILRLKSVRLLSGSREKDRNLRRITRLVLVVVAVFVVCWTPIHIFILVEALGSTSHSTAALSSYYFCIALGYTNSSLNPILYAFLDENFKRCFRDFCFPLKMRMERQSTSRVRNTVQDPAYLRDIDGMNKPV
cloned human δ opioid receptor, sequence (P41143 whole entry): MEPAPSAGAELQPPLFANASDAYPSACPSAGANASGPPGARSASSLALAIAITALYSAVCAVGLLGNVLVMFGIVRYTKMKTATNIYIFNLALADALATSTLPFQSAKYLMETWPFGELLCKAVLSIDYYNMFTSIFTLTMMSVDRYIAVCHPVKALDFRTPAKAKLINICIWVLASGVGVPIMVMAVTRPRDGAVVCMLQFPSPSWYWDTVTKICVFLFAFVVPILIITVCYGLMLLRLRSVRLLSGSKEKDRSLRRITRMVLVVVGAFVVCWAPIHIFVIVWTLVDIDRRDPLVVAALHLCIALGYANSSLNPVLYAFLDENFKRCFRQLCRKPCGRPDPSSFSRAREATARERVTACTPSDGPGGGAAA
human δ opioid receptor, sequence (P41143 whole entry): as above

Take `Clc1ccc2c(c1)C(N1CCNCC1)=Nc1ccccc1O2` [Amoxapine]: the inhibition at 10 µM in series [1] was 25%; in series [2] (setting [9]), 18%.

As for `C=CCN1C[C@H](C)N([C@H](c2ccc(C(=O)N(CC)CC)cc2)c2cccc(O)c2)C[C@H]1C` [BW373U86], the inhibition constant (Ki) in series [1] (cloned human κ receptor in CHO membranes, read-out: Ki, inhibition of [3H]diprenorphine binding, κ) is 149 nM; in series [2] (cloned human μ receptor in CHO membranes, read-out: Ki, inhibition of [3H]diprenorphine binding, μ), 96 nM.

On to `CN1CCN(C2=Nc3cc(Cl)ccc3Nc3ccccc32)CC1` [Clozapine, 8-chloro-11-(4-methyl-1-piperazinyl)-5H-dibenzo[b,e][1,4]-diazepine], for which the “blockade of clozapine-induced seizures by the selective δ antagonist naltrindole” value in series [3] (naltrindole 1 mg/kg s.c. 20 min before 30 mg/kg clozapine) is “not blocked”. Besides, the Ki in series [4] turned out to be 928 nM. In addition, the inhibition at 10 µM in series [1] stood at 11%; in series [2] (setting [9]), 17%.

With `CN1CCN(C2=Nc3ccccc3Oc3ccc(Cl)cc32)CC1` [Loxapine], the inhibition at 10 µM in series [4] (setting [9]) worked out at 26%; in series [1], 27%; in series [2] (setting [9]), 0%.

Take `Clc1ccc2c(c1)N=C(N1CCNCC1)c1ccccc1N2` [N-desmethylclozapine]: the induction of seizures result in series [3] is listed as “does not induce seizures”; in series [3] (listed as DMCLZ), “does not produce seizures”. Further, in series [5], the “percent antagonism (% A) of formalin-induced flinching” value is recorded as 56 % A. The concentration for a half-maximal effect (EC50) in series [6] was found to be 290 nM. Also, in series [6] (FIG. 3), the “agonist character at the human δ opioid receptor” value is recorded as “full agonist”. Besides, the inhibition constant (Ki) in series [4] is 24 nM. In addition, the inhibition at 10 µM in series [1] amounted to 64%; in series [2] (setting [9]) it was 17%. The plasma level in series [7] was around 620 nM. In series [8], this compound came in with an ED50 of 2.2 mg/kg.

Take `C=CCN1C[C@H](C)N([C@H](c2ccc(C(=O)N(CC)CC)cc2)c2cccc(OC)c2)C[C@H]1C` [SNC-80]: in series [1] (read-out: % Inhibition @ 1.0 μM, κ), the inhibition at 1 µM stood at 2%. For the same compound, the inhibition at 10 µM in series [2] stood at 5.5%.

What is called inhibition is how much of the control response was suppressed. The term Ki denotes a measure of affinity in units of concentration, obtained from inhibition or displacement. In general, EC50 refers to the concentration that produces a half-maximal response. By ED50 is commonly meant the midpoint of the dose-response relation. High values mean a need for a large dose, low ones an effect at a small dose.
